# The source made the active and inactive calls. No cut-off for these calls is given here.
# Key:
# Aorta [1] = test: Antiangiogenic activity in Sprague-Dawley rat aortic ring at 0.2 ug/ml after 6 days by inverted microscopic analysis; assay type: functional, tissue-based
# Aorta [2] = test: Inhibition of micrangium generation in Sprague-Dawley rat aortic ring at 0.2 ug/ml after 6 days by inverted microscopic analysis; assay type: functional, tissue-based
# HT-29 = test: Antitumor activity against human HT-29 cells xenografted in BALB/c nude mouse assessed as tumor growth inhibition at 80 mg/kg/day administered qd measured up to day 21 relative to control; assay type: functional
# Mus musculus [3] = test: Toxicity in BALB/c nude mouse xenografted with human HT-29 cells assessed as weakness at 80 mg/kg/day administered qd; assay type: organism-based; details: in vivo
# Mus musculus [4] = test: Toxicity in BALB/c nude mouse xenografted with human HT-29 cells assessed as lethargic behavior at 80 mg/kg/day administered qd; assay type: organism-based; details: in vivo
# Mus musculus [5] = test: Toxicity in BALB/c nude mouse xenografted with human HT-29 cells assessed as development of diarrhea at 80 mg/kg/day administered qd; assay type: organism-based; details: in vivo
# Mus musculus [6] = test: Toxicity in BALB/c nude mouse xenografted with human HT-29 cells assessed as severe weight loss at 80 mg/kg/day administered qd measured after 6 days; assay type: organism-based; details: in vivo, 144 h
# Mus musculus [7] = test: Toxicity in BALB/c nude mouse xenografted with human HT-29 cells assessed as mortality at 80 mg/kg/day administered qd measured after 6 days; assay type: organism-based; details: in vivo, 144 h
# Mus musculus [8] = test: Toxicity in BALB/c nude mouse xenografted with human HT-29 cells assessed as severe weight loss at 80 mg/kg/day administered qd measured after 3 days; assay type: organism-based; details: in vivo, 72 h
# Mus musculus [9] = test: Toxicity in BALB/c nude mouse xenografted with human HT-29 cells assessed as mortality at 80 mg/kg/day administered qd measured on day 12; assay type: organism-based; details: in vivo
# Mus musculus [10] = test: Toxicity in BALB/c nude mouse xenografted with human HT-29 cells assessed as severe weight loss at 80 mg/kg/day administered qd; assay type: organism-based; details: in vivo
# Mus musculus [11] = test: Toxicity in BALB/c nude mouse xenografted with human HT-29 cells assessed as hematuria at 80 mg/kg/day administered qd measured up to day 21; assay type: organism-based; details: in vivo
# Mus musculus [12] = test: Toxicity in BALB/c nude mouse xenografted with human HT-29 cells assessed as bloody stool at 80 mg/kg/day administered qd measured up to day 21; assay type: organism-based; details: in vivo
# Mus musculus [13] = test: Toxicity in BALB/c nude mouse xenografted with human HT-29 cells assessed as weight loss at 80 mg/kg/day administered qd measured up to day 21; assay type: organism-based; details: in vivo
# Mus musculus [14] = test: Toxicity in BALB/c nude mouse xenografted with human NCI-H460 cells assessed as hematuria at 40 mg/kg/day administered qd; assay type: organism-based; details: in vivo
# Mus musculus [15] = test: Toxicity in BALB/c nude mouse xenografted with human NCI-H460 cells assessed as bloody stool at 40 mg/kg/day administered qd; assay type: organism-based; details: in vivo
# Mus musculus [16] = test: Toxicity in BALB/c nude mouse xenografted with human NCI-H460 cells assessed as severe weight loss at 40 mg/kg/day administered qd; assay type: organism-based; details: in vivo
# NCI-H460 [17] = test: Antitumor activity against human NCI-H460 cells xenografted in BALB/c nude mouse assessed as tumor growth inhibition at 40 mg/kg/day administered qd measured up to day 21 relative to control; assay type: functional
# Mus musculus [18] = test: Toxicity in BALB/c nude mouse xenografted with human HT-29 cells assessed as mortality at 80 mg/kg/day administered qd measured on day 15; assay type: organism-based; details: in vivo
# Mus musculus [19] = test: Toxicity in BALB/c nude mouse xenografted with human NCI-H460 cells assessed as weakness at 40 mg/kg/day administered qd; assay type: organism-based; details: in vivo
# Mus musculus [20] = test: Toxicity in BALB/c nude mouse xenografted with human NCI-H460 cells assessed as lethargic behavior at 40 mg/kg/day administered qd; assay type: organism-based; details: in vivo
# Mus musculus [21] = test: Toxicity in BALB/c nude mouse xenografted with human NCI-H460 cells assessed as severe weight loss at 40 mg/kg/day administered qd measured after 9 days; assay type: organism-based; details: in vivo, 216 h
# Mus musculus [22] = test: Toxicity in BALB/c nude mouse xenografted with human NCI-H460 cells assessed as bloody stool at 40 mg/kg/day administered qd measured after 9 days; assay type: organism-based; details: in vivo, 216 h
# Mus musculus [23] = test: Toxicity in BALB/c nude mouse xenografted with human NCI-H460 cells assessed as mortality at 40 mg/kg/day administered qd measured on day 15; assay type: organism-based; details: in vivo
# Mus musculus [24] = test: Toxicity in BALB/c nude mouse xenografted with human HT-29 cells assessed as severe weight loss at 80 mg/kg/day administered qd measured after 9 days; assay type: organism-based; details: in vivo, 216 h
# Mus musculus [25] = test: Toxicity in BALB/c nude mouse xenografted with human HT-29 cells assessed as severe weight loss at 80 mg/kg/day administered qd measured after 12 to 15 days; assay type: organism-based; details: in vivo
# Mus musculus [26] = test: Toxicity in BALB/c nude mouse xenografted with human HT-29 cells assessed as mortality at 80 mg/kg/day administered qd measured on day 21; assay type: organism-based; details: in vivo
# [27] = Antiproliferative activity against human LO2 cells after 72 hrs by MTT assay; assay type: cell-based; details: L02, 72 h
# Mus musculus [28] = test: Toxicity in BALB/c nude mouse xenografted with human HT-29 cells assessed as change in body weight at 80 mg/kg/day administered qd relative to control; assay type: organism-based; details: in vivo
# Mus musculus [29] = test: Toxicity in BALB/c nude mouse xenografted with human NCI-H460 cells assessed as change in body weight at 40 mg/kg/day administered qd relative to control; assay type: organism-based; details: in vivo
# [30] = Antiproliferative activity against human MV411 cells after 48 hrs by MTT assay; assay type: functional, cell-based; details: MV4-11, 48 h
# TT = test: Antiproliferative activity against human TT cells pretreated for 72 hrs followed by compound-washout measured after 72 hrs by MTT assay; assay type: functional, cell-based
# NCI-H460 [31] = test: Antiproliferative activity against human NCI-H460 cells after 72 hrs by MTT assay; assay type: functional, cell-based; details: NCI-H460, 72 h
# NCI-H526 = test: Antiproliferative activity against human NCI-H526 cells after 72 hrs by MTT assay; assay type: functional, cell-based; details: NCI-H526, 72 h
# [32] = Antiproliferative activity against human NCI-H3122 cells after 72 hrs by MTT assay; assay type: functional, cell-based; details: NCI-H3122, 72 h
# [33] = Antiproliferative activity against human Bel7402 cells after 72 hrs by MTT assay; assay type: functional, cell-based; details: Bel-7402, 72 h
# [34] = Antiproliferative activity against human HK2 cells after 72 hrs by MTT assay; assay type: cell-based; details: HK-2, 72 h
compound,measurement,setting,value
Cc1[nH]c(/C=C2\C(=O)Nc3ccc(F)cc32)c(C)c1NC(=O)CCCN(C)C,inhibition,Aorta [1],Active
same,inhibition,Aorta [2],Active
same,Activity,HT-29,Active
Cc1[nH]c(/C=C2\C(=O)Nc3ccc(F)cc32)c(C)c1C(=O)N1CCC(N(C)C)CC1,inhibition,Aorta [1],Active
same,inhibition,Aorta [2],Active
same,Activity,HT-29,Active
same,Activity,Mus musculus [3],Toxic
same,Activity,Mus musculus [4],Toxic
same,Activity,Mus musculus [5],Toxic
same,Activity,Mus musculus [6],Toxic
same,Activity,Mus musculus [7],Toxic
CCN(CC)CCC(=O)Nc1c(C)[nH]c(/C=C2\C(=O)Nc3ccc(Cl)cc32)c1C,Activity,Mus musculus [8],Toxic
same,Activity,Mus musculus [9],Toxic
same,inhibition,Aorta [1],Active
same,inhibition,Aorta [2],Active
Cc1[nH]c(/C=C2\C(=O)Nc3ccc(F)cc32)c(C)c1C(=O)N1CCN(CCO)CC1,inhibition,Aorta [1],Active
same,inhibition,Aorta [2],Active
same,Activity,HT-29,inactive
CCN(CC)CCC(=O)Nc1c(C)[nH]c(/C=C2\C(=O)Nc3ccc(Br)cc32)c1C,Activity,Mus musculus [10],Toxic
same,inhibition,Aorta [1],Active
same,inhibition,Aorta [2],Active
same,Activity,HT-29,Active
Cc1[nH]c(/C=C2\C(=O)Nc3ccc(F)cc32)c(C)c1C(=O)N1CCN(C)CC1,Activity,Mus musculus [11],Non-toxic
same,Activity,Mus musculus [12],Non-toxic
same,Activity,Mus musculus [13],Non-toxic
same,inhibition,Aorta [1],Active
same,inhibition,Aorta [2],Active
same,Activity,HT-29,Active
Cc1[nH]c(/C=C2\C(=O)Nc3ccc(F)cc32)c(C)c1NC(=O)CN1CCCCC1,Activity,Mus musculus [14],Non-toxic
same,Activity,Mus musculus [15],Non-toxic
same,Activity,Mus musculus [16],Non-toxic
same,inhibition,Aorta [1],Active
same,inhibition,Aorta [2],Active
same,TGI,NCI-H460 [17],inactive
Cc1[nH]c(/C=C2\C(=O)Nc3ccc(F)cc32)c(C)c1NC(=O)CCN1CCCCC1,Activity,Mus musculus [11],Non-toxic
same,Activity,Mus musculus [12],Non-toxic
same,Activity,Mus musculus [10],Non-toxic
same,Activity,Mus musculus [14],Non-toxic
same,Activity,Mus musculus [15],Non-toxic
same,Activity,Mus musculus [16],Non-toxic
same,inhibition,Aorta [1],Active
same,inhibition,Aorta [2],Active
same,Activity,HT-29,Active
same,TGI,NCI-H460 [17],Active
Cc1[nH]c(/C=C2\C(=O)Nc3ccc(F)cc32)c(C)c1NC(=O)CCN1CCOCC1,Activity,Mus musculus [11],Non-toxic
same,Activity,Mus musculus [12],Non-toxic
same,inhibition,Aorta [1],Active
same,inhibition,Aorta [2],Active
same,Activity,HT-29,inactive
CCN1CCN(C(=O)c2c(C)[nH]c(/C=C3\C(=O)Nc4ccc(F)cc43)c2C)CC1,Activity,Mus musculus [11],Non-toxic
same,Activity,Mus musculus [12],Non-toxic
same,Activity,Mus musculus [13],Non-toxic
same,inhibition,Aorta [1],Active
same,inhibition,Aorta [2],Active
same,Activity,HT-29,Active
Cc1[nH]c(/C=C2\C(=O)Nc3ccc(F)cc32)c(C)c1NC(=O)CCN(C)C,inhibition,Aorta [1],Active
same,inhibition,Aorta [2],Active
same,Activity,HT-29,Active
CCN(CC)CCC(=O)Nc1c(C)[nH]c(/C=C2\C(=O)Nc3ccc(F)cc32)c1C,Activity,Mus musculus [18],Toxic
same,inhibition,Aorta [1],Active
same,inhibition,Aorta [2],Active
same,Activity,HT-29,Active
same,Activity,Mus musculus [6],Toxic
Cc1[nH]c(/C=C2\C(=O)Nc3ccc(F)cc32)c(C)c1NC(=O)/C=C/CN(C)C,inhibition,Aorta [1],Active
same,inhibition,Aorta [2],Active
same,Activity,HT-29,inactive
Cc1[nH]c(/C=C2\C(=O)Nc3ccc(F)cc32)c(C)c1NC(=O)CN1CCN(C)CC1,Activity,Mus musculus [19],Toxic
same,Activity,Mus musculus [20],Toxic
same,Activity,Mus musculus [21],Toxic
same,Activity,Mus musculus [22],Toxic
same,Activity,Mus musculus [23],Toxic
same,inhibition,Aorta [1],Active
same,inhibition,Aorta [2],Active
CCN1CCN(CCC(=O)Nc2c(C)[nH]c(/C=C3\C(=O)Nc4ccc(F)cc43)c2C)CC1,Activity,Mus musculus [11],Non-toxic
same,Activity,Mus musculus [12],Non-toxic
same,Activity,Mus musculus [10],Non-toxic
same,Activity,Mus musculus [14],Non-toxic
same,Activity,Mus musculus [15],Non-toxic
same,Activity,Mus musculus [16],Non-toxic
same,inhibition,Aorta [1],Active
same,inhibition,Aorta [2],Active
same,Activity,HT-29,Active
same,TGI,NCI-H460 [17],Active
Cc1[nH]c(/C=C2\C(=O)Nc3ccc(F)cc32)c(C)c1NC(=O)CCN1CCCC1,Activity,Mus musculus [14],Non-toxic
same,Activity,Mus musculus [15],Non-toxic
same,Activity,Mus musculus [16],Non-toxic
same,inhibition,Aorta [1],Active
same,inhibition,Aorta [2],Active
same,TGI,NCI-H460 [17],Active
CCN(CC)C1CCN(C(=O)c2c(C)[nH]c(/C=C3\C(=O)Nc4ccc(F)cc43)c2C)CC1,Activity,Mus musculus [24],Toxic
same,Activity,Mus musculus [18],Toxic
same,inhibition,Aorta [1],Active
same,inhibition,Aorta [2],Active
same,Activity,HT-29,Active
same,Activity,Mus musculus [3],Toxic
same,Activity,Mus musculus [4],Toxic
same,Activity,Mus musculus [5],Toxic
same,Activity,Mus musculus [6],Toxic
CCN(CC)CCNC(=O)c1c(C)[nH]c(/C=C2\C(=O)Nc3ccc(F)cc32)c1C [SUNITINIB],Activity,Mus musculus [25],Toxic
same,Activity,Mus musculus [26],Toxic
same,Activity,HT-29,Active
same,Activity,HT-29; record 2,88.9%
same,IC50,[27],19900 nM
same,TGI,NCI-H460 [17],Active
same,Activity,Mus musculus [28],-24.1%
same,Activity,Mus musculus [29],12.3%
same,IC50,[30],3 nM
same,IC50,TT,40 nM
same,IC50,NCI-H460 [31],4310 nM
same,IC50,NCI-H526,1010 nM
same,IC50,[32],830 nM
same,IC50,[33],2670 nM
same,IC50,[34],5850 nM

# Reference: ChEMBL document CHEMBL3286339, “Synthesis and in vivo SAR study of indolin-2-one-based multi-targeted inhibitors as potential anticancer agents” (Eur J Med Chem, 2014)
